Measurements taken from US20250144253A1, “3-((3-([1,1'-BIPHENYL]-3-YLMETHOXY)PHENOXY)METHYL)BENZONITRILE DERIVATIVES AND THE USE THEREOF” (HELMHOLTZ-ZENTRUM DRESDEN-ROSSENDORF E.V., priority 2021, published 2025).
In brackets after ≈: the same amount, converted by molar mass.

Legend:
[1] = Water solubility by adding water in 1 μl steps to 1 mg compound; type: physicochemical; conditions: thermodynamic from solid
Description: The water solubility of compounds 85-90 was determined by weighing 1 mg of the cold compound in an Eppendorf-tube and adding water in 1 μl steps. The addition was performed until everything was dissolved. The value in mg/μl was converted to […].

PD-L1 = biological target: T1, PD-L1 (Homo sapiens, UniProt Q9NZQ7); assay: Saturation binding assay of Cu-64 labelled radioligands on PC3 hPSCA PD-L1 overexpressing cell line; conditions: PC3 hPSCA PD-L1 cells, n = 3; for Kd: 4° C., 90 min
T1 construct: expressed in transfected cells; host or cells: PC3 hPSCA PD-L1 overexpressing cell line
Description: Experiments were performed on a PC3 hPSCA PD-L1 overexpressing cell line in triplicates and three experiments were performed per compound, resulting in a 3×3 data set per compound (see FIGS. 1 to 3). The saturated, upper curve represents the total binding of the compound whereas the lower, linear curve represents the unspecific binding. The specific binding is represented as the difference between total and unspecific binding.
In the following the procedure for saturation binding assay is explained: The respective Cu-64 labeled compound is prepared freshly for each experiment. The cells with PD-L1 expression were prepared in 48-well plates. Three rows in the plates were designated for determination of total binding and one row for determination of the unspecific binding. For the latter, the cells are pretreated for 15 min with a 300 fold excess of a literature known PD-L1 inhibitor with high binding to PD-L1. […] Protein determination takes place at the next day and provides the Bmax value (total density of PD-L1 receptors on cell surface). Plotting and graphical interpretation provides curves and Kd-values from graph fitting.

[2] = Distribution coefficient log D at pH 7.4; type: physicochemical; conditions: pH 7.4, n = 3
Source text: In general, the more negative the values of log D the better the water solubility.

PD-L1 tumor [3] = assay: PET imaging in PD-L1 overexpressing mouse xenograft model; type: in vivo
Description: Compound 119 was tested in a PD-L1 overexpressing mouse xenograft model. PET images were recorded 2 h, 15 h and 24 h post injection (see FIG. 4). The experiments were performed with compound 119 in duplicates (two mice for each timepoint). About 10 MBq of radiolabelled compound were injected intravenously in the tail vain of an alive mouse. At 2 hrs p.i. the first image was recorded. […] At 5 hrs p.i. the second image was recorded. High uptake in liver; high uptake in colon and intestine and increased uptake in PD-L1 tumor have been observed. At 24 hrs p.i. the third image was recorded. Moderate uptake in liver, low uptake in intestine and moderate uptake in the PD-L1 positive tumor has been observed.

PD-L1 tumor [4] = assay: as above; type: in vivo; conditions: 5 hrs p.i. (second image)

T1 sequence (Q9NZQ7 19-290): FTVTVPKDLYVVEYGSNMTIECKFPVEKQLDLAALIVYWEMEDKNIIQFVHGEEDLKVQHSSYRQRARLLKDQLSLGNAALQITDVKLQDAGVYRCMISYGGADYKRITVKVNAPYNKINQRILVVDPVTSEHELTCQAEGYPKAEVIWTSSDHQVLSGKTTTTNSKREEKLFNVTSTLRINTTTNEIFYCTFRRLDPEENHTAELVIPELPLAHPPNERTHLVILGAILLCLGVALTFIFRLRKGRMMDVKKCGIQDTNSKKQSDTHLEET

Row | Compound | solubility [1] [mg/mL] | Kd (PD-L1) [nM] | Bmax (receptor density) (PD-L1) | Log D7.4 [2] | other results
1 | CN(CC(=O)NCC(S(=O)(=O)O)S(=O)(=O)O)Cc1cc(Cl)c(OCc2cccc(-c3cccc(OCc4cn(CCCF)nn4)c3)c2Br)cc1OCc1cncc(S(C)(=O)=O)c1 [Compound 85, 2-(2-((4-((2-Bromo-3′-((1-(3-fluoropropyl)-1H-1,2,3-triazol-4-yl)methoxy)-[1,1′-biphenyl]-3-yl)methoxy)-5-chloro-2-((5-(methylsulfonyl)pyridin-3-yl)methoxy)benzyl)(methyl)amino)acetamido)ethane-1,1-disulfonic acid] | 80 (≈ 79.7 mM) |  |  |  | 
2 | CN(CC(=O)NCC(S(=O)(=O)O)S(=O)(=O)O)Cc1cc(Cl)c(OCc2cccc(-c3cccc(OCc4cn([C@@H]5O[C@H](CO)[C@@H](O)[C@H](O)[C@H]5F)nn4)c3)c2Br)cc1OCc1cncc(S(C)(=O)=O)c1 [Compound 86, 2-(2-((4-((2-Bromo-3′-((1-((2R,3R,4S,5S,6R)-3-fluoro-4,5-dihydroxy-6-(hydroxymethyl)tetrahydro-2H-pyran-2-yl)-1H-1,2,3-triazol-4-yl)methoxy)-[1,1′-biphenyl]-3-yl)methoxy)-5-chloro-2-((5-(methylsulfonyl)pyridin-3-yl)methoxy)benzyl)(methyl)amino)acetamido)ethane-1,1-disulfonic acid] | 110 (≈ 99.2 mM) |  |  |  | 
3 | CN(CC(=O)NCC(S(=O)(=O)O)S(=O)(=O)O)Cc1cc(Cl)c(OCc2cccc(-c3cccc(OCc4cn([C@@H]5O[C@H](CF)[C@@H](O)[C@H](O)[C@H]5O)nn4)c3)c2Br)cc1OCc1cncc(S(C)(=O)=O)c1 [Compound 87, 2-(2-((4-((2-Bromo-3′-((1-((2R,3R,4S,5S,6S)-6-(fluoromethyl)-3,4,5-trihydroxytetrahydro-2H-pyran-2-yl)-1H-1,2,3-triazol-4-yl)methoxy)-[1,1′-biphenyl]-3-yl)methoxy)-5-chloro-2-((5-(methylsulfonyl)pyridin-3-yl)methoxy)benzyl)(methyl)amino)acetamido)ethane-1,1-disulfonic acid] | 115 (≈ 104 mM) |  |  |  | 
4 | Cc1c(COc2cc(OCc3cncc(S(C)(=O)=O)c3)c(CN(C)CC(=O)NCC(S(=O)(=O)O)S(=O)(=O)O)cc2Cl)cccc1-c1cccc(OCc2cn(CCCF)nn2)c1C [Compound 88, 2-(2-((5-Chloro-4-((3′-((1-(3-fluoropropyl)-1H-1,2,3-triazol-4-yl)methoxy)-2,2′-dimethyl-[1,1′-biphenyl]-3-yl)methoxy)-2-((5-(methylsulfonyl)pyridin-3-yl)methoxy)benzyl)(methyl)amino)acetamido)ethane-1,1-disulfonic acid] | 85 (≈ 89.1 mM) |  |  |  | 
5 | Cc1c(COc2cc(OCc3cncc(S(C)(=O)=O)c3)c(CN(C)CC(=O)NCC(S(=O)(=O)O)S(=O)(=O)O)cc2Cl)cccc1-c1cccc(OCc2cn([C@@H]3O[C@H](CO)[C@@H](O)[C@H](O)[C@H]3F)nn2)c1C [Compound 89, 2-(2-((5-Chloro-4-((3′-((1-((2R,3R,4S,5S,6R)-3-fluoro-4,5-dihydroxy-6-(hydroxymethyl)tetrahydro-2H-pyran-2-yl)-1H-1,2,3-triazol-4-yl)methoxy)-2,2′-dimethyl-[1,1′-biphenyl]-3-yl)methoxy)-2-((5-(methylsulfonyl)pyridin-3-yl)methoxy)benzyl)(methyl)amino)acetamido)ethane-1,1-disulfonic acid] | 120 (≈ 113 mM) |  |  |  | 
6 | Cc1c(COc2cc(OCc3cncc(S(C)(=O)=O)c3)c(CN(C)CC(=O)NCC(S(=O)(=O)O)S(=O)(=O)O)cc2Cl)cccc1-c1cccc(OCc2cn([C@@H]3O[C@H](CF)[C@@H](O)[C@H](O)[C@H]3O)nn2)c1C [Compound 90, 2-(2-((5-Chloro-4-((3′-((1-((2R,3R,4S,5S,6S)-6-(fluoromethyl)-3,4,5-trihydroxytetrahydro-2H-pyran-2-yl)-1H-1,2,3-triazol-4-yl)methoxy)-2,2′-dimethyl-[1,1′-biphenyl]-3-yl)methoxy)-2-((5-(methylsulfonyl)pyridin-3-yl)methoxy)benzyl)(methyl)amino)acetamido)ethane-1,1-disulfonic acid] | 115 (≈ 109 mM) |  |  |  | 
7 | CN(CC(=O)NCC(S(=O)(=O)O)S(=O)(=O)O)Cc1cc(Cl)c(OCc2cccc(-c3cccc(OCc4cn(CCCC5CCN(C(=O)CN6CCN(CC(=O)O)CCN(CC(=O)O)CCN(CC(=O)O)CC6)CC5)nn4)c3)c2Br)cc1OCc1cncc(S(C)(=O)=O)c1 [Compound 115] |  | 585 ± 39.6 | 11.7 ± 0.54 pmol/mg | −2.73 ± 0.04 | 
8 | CN(CC(=O)NCC(S(=O)(=O)O)S(=O)(=O)O)Cc1cc(Cl)c(OCc2cccc(-c3cccc(OCc4cn(CCOCCOCCN5CCN(C(=O)CN6CCN(CC(=O)O)CCN(CC(=O)O)CCN(CC(=O)O)CC6)CC5)nn4)c3)c2Br)cc1OCc1cncc(S(C)(=O)=O)c1 [Compound 117] |  | 357 ± 66.5 | 5.85 ± 1.14 (n = 6) pmol/mg | −3.47 ± 0.10 | 
9 | Cc1c(COc2cc(OCc3cncc(S(C)(=O)=O)c3)c(CN(C)CC(=O)NCC(S(=O)(=O)O)S(=O)(=O)O)cc2Cl)cccc1-c1cccc(OCc2cn(CCCC3CCN(C(=O)CN4CCN(CC(=O)O)CCN(CC(=O)O)CCN(CC(=O)O)CC4)CC3)nn2)c1C [Compound 118] |  | 123 ± 11.7 | 13.5 ± 0.98 pmol/mg | −2.75 ± 0.04 | 
10 | Cc1c(COc2cc(OCc3cncc(S(C)(=O)=O)c3)c(CN(C)CC(=O)NCC(S(=O)(=O)O)S(=O)(=O)O)cc2Cl)cccc1-c1cccc(OCc2cn(CCCN3CCN(C(=O)CN4CCN(CC(=O)O)CCN(CC(=O)O)CCN(CC(=O)O)CC4)CC3)nn2)c1C [Compound 119] |  | 59.9 ± 4.63 | 5.43 ± 0.46 pmol/mg | −3.14 ± 0.02 | circulation in the blood pool (PD-L1 tumor [3]; 2 hrs p.i.): did still circulate in the blood pool; uptake in PD-L1 tumor (PD-L1 tumor [3]; 2 hrs p.i.): low; uptake in bladder and intestines (PD-L1 tumor [3]; 2 hrs p.i.): high; uptake in liver (PD-L1 tumor [3]; 2 hrs p.i., about 10 MBq i.v.): Moderate; uptake in intestine (PD-L1 tumor [3]; 24 hrs p.i.): low; uptake in liver (PD-L1 tumor [3]; 24 hrs p.i.): Moderate; uptake in the PD-L1 positive tumor (PD-L1 tumor [3]; 24 hrs p.i.): moderate; uptake in PD-L1 tumor (PD-L1 tumor [4]): increased; uptake in colon and intestine (PD-L1 tumor [4]): high; uptake in liver (PD-L1 tumor [4]): High
11 | Cc1c(COc2cc(OCc3cncc(S(C)(=O)=O)c3)c(CN(C)CC(=O)NCC(S(=O)(=O)O)S(=O)(=O)O)cc2Cl)cccc1-c1cccc(OCc2cn(CCOCCOCCN3CCN(C(=O)CN4CCN(CC(=O)O)CCN(CC(=O)O)CCN(CC(=O)O)CC4)CC3)nn2)c1C [Compound 120] |  | 71.3 ± 10.1 | 7.04 ± 0.42 pmol/mg | −3.50 ± 0.01 | 
12 | Cc1c(COc2cc(OCc3cncc(C#N)c3)c(CN(C)CC(=O)NCC(S(=O)(=O)O)S(=O)(=O)O)cc2Cl)cccc1-c1cccc(OCc2cn(CCCN3CCN(C(=O)CN4CCN(CC(=O)O)CCN(CC(=O)O)CCN(CC(=O)O)CC4)CC3)nn2)c1C [Compound 121] |  | 128 ± 13.2 | 20.9 ± 2.17 pmol/mg | −2.99 ± 0.02 | 
13 | Cc1c(COc2cc(OCc3cncc(C#N)c3)c(CN(C)CC(=O)NCC(S(=O)(=O)O)S(=O)(=O)O)cc2Br)cccc1-c1cccc(OCc2cn(CCCN3CCN(C(=O)CN4CCN(CC(=O)O)CCN(CC(=O)O)CCN(CC(=O)O)CC4)CC3)nn2)c1C [Compound 122] |  | 135 ± 2.34 | 8.28 ± 0.13 pmol/mg | −3.48 ± 0.03 | 
14 | Cc1c(COc2cc(OCc3cncc(C#N)c3)c(CN(C)CC(=O)NCC(S(=O)(=O)O)S(=O)(=O)O)cc2I)cccc1-c1cccc(OCc2cn(CCCN3CCN(C(=O)CN4CCN(CC(=O)O)CCN(CC(=O)O)CCN(CC(=O)O)CC4)CC3)nn2)c1C [Compound 123] |  | 300 ± 20.6 | 49.6 ± 1.27 pmol/mg | −2.89 ± 0.02 | 
15 | Cc1c(COc2cc(OCc3cncc(S(C)(=O)=O)c3)c(CN[C@@H](CS(=O)(=O)O)C(=O)NCCS(=O)(=O)O)cc2Cl)cccc1-c1cccc(OCc2cn(CCCN3CCN(C(=O)[C@H](CS(=O)(=O)O)NC(=O)CC[C@H](C(=O)O)N4CCN(CC(=O)O)CCN(CC(=O)O)CC4)CC3)nn2)c1C [Compound 222] |  |  |  | −3.80 ± 0.02 | 
